# Results published in ChEMBL document CHEMBL5360614, “Quinoline Thiourea-Based Zinc Ionophores with Antibacterial Activity” (J Med Chem, 2023).
# pEC50: −log10 of the molar value. Active and inactive are the calls of the source. No cut-off for these calls is given here.
# Legend:
# Lipid bilayer [1] = assay: (§1) Induction of ionophore activity across EYPC:CHOL (8:2) large unilamellar vesicles assessed as transmembrane Zn2+ ion transport by measuring decrease in fluorescence intensity for HPTS dye preincubated for 3 mins followed by ZnCl2 addition and mesured after 7.5 mins by HPTS dye based fluorescence spectrophotometric analysis
# Lipid bilayer [2] = assay: as §1, with “cation” for “Zn2+ ion”, “LiCl” for “ZnCl2”; settings: time 10.5 min
# Lipid bilayer [3] = assay: as §1, with “cation” for “Zn2+ ion”, “MnCl2” for “ZnCl2”; settings: time 10.5 min
# Lipid bilayer [4] = assay: as §1, with “cation” for “Zn2+ ion”, “MgCl2” for “ZnCl2”; settings: time 10.5 min
# Lipid bilayer [5] = assay: as §1, with “anion” for “Zn2+ ion”, “ZnSO4” for “ZnCl2”; settings: filed as opener; time 10.5 min
# Lipid bilayer [6] = assay: as §1, with “HPTS dye at 25 uM preincubated for” for “HPTS dye preincubated for”, “followed by 1 to 25 mM ZnCl2 addition” for “followed by ZnCl2 addition”; settings: filed as opener, time 10.5 min
# [7] = Binding affinity to Zn2+ ion assessed as binding constant by Benesi-Hildebrand equation analysis
# Lipid bilayer [8] = assay: Induction of ionophore activity across EYPC:CHOL (8:2) large unilamellar vesicles assessed as transmembrane Zn2+ ion transport by measuring fluorescence intensity for CFZ dye at 5 to 20 uM preincubated for 3 mins followed by ZnCl2 addition and mesured after 7.5 mins by CFZ dye based fluorescence spectrophotometric analysis; settings: filed as opener; dose 5-20 µM, time 10.5 min
# Staphylococcus aureus [9] = assay: Antibacterial activity against Staphylococcus aureus MTCC-96 assessed as reduction in bacterial growth incubated for 14 to 16 hrs in presence of 400 uM ZnCl2 by microbroth dilution method; type: functional; settings: time 14-16 hrs
# Staphylococcus aureus [10] = assay: Antibacterial activity against Staphylococcus aureus MTCC-96 assessed as reduction in bacterial growth incubated for 14 to 16 hrs in presence of EGTA by microbroth dilution method; type: functional; settings: time 14-16 hrs
# Cell membrane = assay: Induction of ionophore activity across Staphylococcus aureus MTCC-96 cell membrane assessed as AQZ directed Zn2+ ion transport by measuring increase in AQZ fluorescence intensity in presence of ZnCl2 and 2-((2-(2-hydroxyethoxy)ethyl)-amino)-N-(quinolin-8-yl)acetamide by fluorescence analysis; type: subcellular; settings: filed as opener
# Staphylococcus aureus [11] = assay: Antibacterial activity against Staphylococcus aureus MTCC-96 assessed as reduction in bacterial growth incubated for 14 to 16 hrs in presence of 100 to 400 uM ZnSO4 by microbroth dilution method; type: functional, organism-based; settings: time 14-16 hrs
# Staphylococcus aureus [12] = assay: Antibacterial activity against Staphylococcus aureus MTCC-96 assessed as reduction in bacterial growth incubated for 14 to 16 hrs in presence of 100 to 400 uM CaCl2 by microbroth dilution method; type: functional, organism-based; settings: time 14-16 hrs
# Staphylococcus aureus [13] = assay: Antibacterial activity against Staphylococcus aureus MTCC-96 assessed as reduction in bacterial growth incubated for 14 to 16 hrs in presence of 100 to 400 uM MgCl2 by microbroth dilution method; type: functional, organism-based; settings: time 14-16 hrs
# Staphylococcus aureus [14] = assay: Bactericidal activity against Staphylococcus aureus MTCC-96 assessed as reduction in bacterial colony formation at 2 times MIC incubated upto 8 hrs in presence of ZnCl2 by agar-plate method; type: functional, organism-based
# Staphylococcus aureus [15] = assay: Disruption of membrane integrity in Staphylococcus aureus MTCC-96 assessed as increase in fluorescence intensity at 4 to 8 uM by PI staining based fluorescence analysis; type: functional, organism-based; settings: dose 4-8 µM
# Staphylococcus aureus [16] = assay: Disruption of membrane integrity in Staphylococcus aureus MTCC-96 assessed as change in cocci shape in presence of Zn2+ ion by FE-SEM analysis; type: functional, organism-based
# Staphylococcus aureus [17] = assay: Induction of intracellular ROS generation in Staphylococcus aureus MTCC-96 assessed as change in fluorescence intensity at 1 uM incubated for 30 mins in presence of Zn2+ ions by DCF-DA staining based fluorescence spectroscopic analysis; type: functional, organism-based
# Staphylococcus aureus [18] = assay: Induction of intracellular ROS generation in Staphylococcus aureus MTCC-96 at 1 uM incubated for 30 mins in presence of Zn2+ ions by DCF-DA staining based fluorescence microscopic analysis; type: functional, organism-based
# Staphylococcus aureus [19] = assay: Antibacterial activity against Staphylococcus aureus MTCC-96 assessed as resistance development by measuring fold increase in MIC and measured after 30 days in presence of ZnCl2 by microbroth dilution method; type: functional, organism-based; settings: time 30.0 day
# Erythrocyte = assay: Hemolytic activity in human Red blood cells assessed as hemolysis rate at 1.6 to 50 uM incubated for 1 to 24 hrs in presence of ZnCl2 by absorbance based analysis; type: toxicity, cell-based; settings: dose lower 1.6 µM, time lower 1 hrs, dose upper 50 µM, time upper 24 hrs
# Staphylococcus aureus [20] = assay: In vivo antibacterial activity against Staphylococcus aureus MTCC-96 infected in Balb/c mouse assessed as reduction in bacterial load by measuring CFU in liver at 31.6 microM/Kg, iv for 7 days in presence of ZnCl2 by CFU assay; type: functional, organism-based; settings: time 7.0 day
# Staphylococcus aureus [21] = assay: In vivo antibacterial activity against Staphylococcus aureus MTCC-96 infected in Balb/c mouse assessed as less dilated hepatic artery at 156.5 microM/Kg, iv for 7 days by hematoxylin and eosin staining based microscopic analysis; type: functional, organism-based; settings: time 7.0 day
# Staphylococcus aureus [22] = assay: In vivo antibacterial activity against Staphylococcus aureus MTCC-96 infected in Balb/c mouse assessed as hepatocyte distribution at 156.5 microM/Kg, iv for 7 days by hematoxylin and eosin staining based microscopic analysis; type: functional, organism-based; settings: time 7.0 day
# Staphylococcus aureus [23] = assay: In vivo antibacterial activity against Staphylococcus aureus MTCC-96 infected in Balb/c mouse assessed as normal architecture of portal vein in liver tissue at 31.6 microM/Kg, iv for 7 days in presence of ZnCl2 by hematoxylin and eosin staining based microscopic analysis; type: functional, organism-based; settings: time 7.0 day
# Staphylococcus aureus [24] = assay: In vivo antibacterial activity against Staphylococcus aureus MTCC-96 infected in Balb/c mouse assessed as normal architecture of hepatic artery in liver tissue at 31.6 microM/Kg, iv for 7 days in presence of ZnCl2 by hematoxylin and eosin staining based microscopic analysis; type: functional, organism-based; settings: time 7.0 day
# Staphylococcus aureus [25] = assay: In vivo antibacterial activity against Staphylococcus aureus MTCC-96 infected in Balb/c mouse assessed as uniform distribution of hepatocytes in liver tissue at 156.5 microM/Kg, iv for 7 days by hematoxylin and eosin staining based microscopic analysis; type: functional, organism-based; settings: time 7.0 day
# Staphylococcus aureus [26] = assay: In vivo antibacterial activity against Staphylococcus aureus MTCC-96 infected in Balb/c mouse assessed as normal morphology of spleen tissue at 156.5 microM/Kg, iv for 7 days by hematoxylin and eosin staining based microscopic analysis; type: functional, organism-based; settings: time 7.0 day
# Staphylococcus aureus [27] = assay: In vivo antibacterial activity against Staphylococcus aureus MTCC-96 infected in Balb/c mouse assessed as normal morphology of spleen tissue at 31.6 microM/Kg, iv for 7 days in presence of ZnCl2 by hematoxylin and eosin staining based microscopic analysis; type: functional, organism-based; settings: time 7.0 day
# Staphylococcus aureus [28] = assay: Antibacterial activity against gentamicin-and methicillin-resistant Staphylococcus aureus ATCC 33592 assessed as reduction in bacterial growth incubated for 14 to 16 hrs in presence of 100 uM ZnCl2 by microbroth dilution method; type: functional; settings: time 14-16 hrs
# Staphylococcus aureus [29] = assay: Antibacterial activity against gentamicin-and methicillin-resistant Staphylococcus aureus ATCC 33592 assessed as reduction in bacterial growth incubated for 14 to 16 hrs in presence of 400 uM ZnCl2 by microbroth dilution method; type: functional; settings: time 14-16 hrs
structure (smiles),measurement,setting,value
FC(F)(F)c1cc(NC(=S)Nc2cccc3ccc(-n4cnc5ccccc54)nc23)cc(C(F)(F)F)c1,pEC50,Lipid bilayer [1],5.26
same,Activity,Lipid bilayer [2],inactive
same,Activity,Lipid bilayer [3],inactive
same,Activity,Lipid bilayer [4],inactive
same,Activity,Lipid bilayer [5],Active
same,Activity,Lipid bilayer [6],Active
same,K,[7],1.36 10^3/M
same,Activity,Lipid bilayer [8],Dose-Dependent Effect
same,MIC,Staphylococcus aureus [9],0.47 µM
same,MIC,Staphylococcus aureus [10],6.25 µM
same,Activity,Cell membrane,Active
same,Activity,Staphylococcus aureus [11],Active
same,Activity,Staphylococcus aureus [12],inactive
same,Activity,Staphylococcus aureus [13],inactive
same,Activity,Staphylococcus aureus [14],Active
same,Activity,Staphylococcus aureus [15],inactive
same,Activity,Staphylococcus aureus [16],inactive
same,Activity,Staphylococcus aureus [17],Active
same,Activity,Staphylococcus aureus [18],Active
same,Activity,Staphylococcus aureus [19],inactive
same,Activity,Erythrocyte,Non-Toxic
same,Activity,Staphylococcus aureus [20],Active
same,Activity,Staphylococcus aureus [21],Active
same,Activity,Staphylococcus aureus [22],Active
same,Activity,Staphylococcus aureus [23],Active
same,Activity,Staphylococcus aureus [24],Active
same,Activity,Staphylococcus aureus [25],Active
same,Activity,Staphylococcus aureus [26],Active
same,Activity,Staphylococcus aureus [27],Active
same,MIC,Staphylococcus aureus [28],3.13 µM
same,MIC,Staphylococcus aureus [29],2 µM
